Test results as given in article PMC6804006, “Synthesis, Biological Activities and Docking Studies of Novel 4-(Arylaminomethyl)benzamide Derivatives as Potential Tyrosine Kinase Inhibitors” (Molecules, 2019).

Tests used:
[1] = test system: K-562 (chronic myelogenous leukemia); test: MTT anti-proliferative assay, K-562; assay type: cell-based; settings: Homo sapiens, K562, 48 h, 50% growth inhibition
Protocol: (§1) Each in vitro experiment was performed at least in triplicate, and the standard deviation of absorbance was less than 10% of the mean. For the in vitro assays, a stock solution (1% DMSO in the appropriate buffer with the tested compound diluted under sonication) was prepared from which several dilutions were made with the appropriate buffer.
(§2) Human cell lines were obtained from the Institute of Cytology, Russian Academy of Sciences. […] Cellular sensitivities to clofarabine and its lipid derivatives were measured with the MTT assay. Cells were plated in triplicate in 96-well plates (10^5 cells/well for suspended cell cultures and 5 × 10^3 cells/well for monolayer cultures); on the same day (suspended cell cultures) or on the following day (monolayer cultures), compounds were added at the appropriate dilutions. Plates were incubated under standard conditions for 48 h. Thereafter, 10 μL of MTT (Sigma) in phosphate-buffered saline (5 mg/mL) was added. The plates were incubated for an additional 4 h, and 150 μL of dimethyl sulfoxide (DMSO) was added to dissolve the formazan crystals. The optical density was read on a HALO MPR-95 Microplate Reader (Dynamica Scientific Ltd., Australia) at 570 nm. The antiproliferative effects were determined as degrees of inhibition of tumor cells (%).

[2] = test system: HL-60 (promyelocytic leukemia); test: MTT anti-proliferative assay, HL-60; assay type: cell-based, human; settings: Homo sapiens, HL-60, 48 h, 50% growth inhibition
Protocol: as §1, §2

[3] = test system: MCF-7 (breast adenocarcinoma); test: MTT anti-proliferative assay, MCF-7; assay type: cell-based; settings: Homo sapiens, MCF7, 48 h, 50% growth inhibition
Protocol: as §1, §2

A549 (lung carcinoma) = test: MTT anti-proliferative assay, A-549; assay type: cell-based; settings: Homo sapiens, 48 h, 50% growth inhibition
Protocol: as §1, §2

[4] = test system: OKP-GS (carcinoma of the kidney); test: MTT anti-proliferative assay, OKP-GS; assay type: cell-based; settings: Homo sapiens, 48 h, 50% growth inhibition
Protocol: as §1, §2

IGF1R = molecular target: T1, IGF1R (Homo sapiens, UniProt P08069); test: ADP-Glo kinase inhibitory assay, IGF1R; assay type: biochemical; settings: read-out: % Inhibition at 10 nM, IGF1R
T1 construct: purchased Promega
Protocol: (§3) We investigated the kinase selectivity of targeted compounds against eight receptor tyrosine kinases including EGFR (epidermal growth factor receptor), HER-2 and HER4 (human epidermal growth factor receptor), IGF1R (insulin like growth factor 1 receptor), InsR (gene insulin receptor), KDR (kinase insert domain receptor), and PDGFRa and PDGFRb (platelet-derived growth factor receptors). The assay was performed using the Kinase-Glo Plus luminescence kinase assay kit (TK-1+ADP-Glo™, Promega, San Diego, CA, USA). It measures kinase activity by quantitating the amount of ATP remaining in solution following a kinase reaction.
(§4) The assay was performed using a Kinase Selectivity Profiling System (TK-1+ADP-Glo™ Assay and TK-2+ADP-Glo™ Assay, Promega), where the kinase activity was measured by quantifying the amount of ADP produced during a kinase reaction. The assay is performed in two steps; firstly, after the kinase reaction, an equal volume of ADP-Glo™ Reagent is added to terminate the kinase reaction and deplete the remaining ATP. Secondly, the Kinase Detection Reagent is added to simultaneously convert ADP to ATP and allow the newly synthesized ATP to be measured using a luciferase/luciferin reaction. The luminescent signal generated is proportional to the ADP concentration produced and is correlated with kinase activity. Our compounds were diluted with kinase buffer (5% DMSO), and 1 μL of the dilution was added to a 5-μL reaction so that the final concentration of DMSO was 1% in all of reactions. All of the enzymatic reactions were conducted at 23 °C for 60 min. The 5-μL reaction mixture contained 1µL of the compound solution, 2µL of the enzyme solution, and 2 µL of kinase substrate. After the enzymatic reaction, 5 µL of ADP-Glo™ Reagent (Promega, USA) was added to each reaction, and the plate was incubated for 40 min at 23 °C. Then, 10 µL of Kinase Detection Reagent (Promega, USA) was added to each reaction, and the plate was incubated for 30 min at 23 °C. Luminescence signal was measured using an Infinite M 200 plate reader (Tecan, Switzerland).
(§5) Kinase activity assays were performed in duplicate at each concentration. The luminescence data were analyzed using the computer software, Magellan™. The difference between luminescence intensities in the absence of Kinase (Lut) and in the presence of Kinase (Luc) was defined as 100% activity (Lut − Luc).

EGFR = molecular target: T2, EGFR (Homo sapiens, UniProt P00533); test: ADP-Glo kinase inhibitory assay, EGFR; assay type: biochemical; settings: read-out: % Inhibition at 10 nM, EGFR
T2 construct: purchased Promega
Protocol: as §3, §4, §5

HER-4 = molecular target: T3, HER-4 (Homo sapiens, UniProt Q15303); test: ADP-Glo kinase inhibitory assay, HER-4; assay type: biochemical; settings: for inhibition at 0.01 µM: read-out: % Inhibition at 10 nM, HER-4; for inhibitory activity in relation to HER-4, in words: 10 nM, compared with imatinib
T3 construct: purchased Promega
Protocol: as §3, §4, §5

[5] = test system: RPMI 1788 (B lymphocyte, human normal cells); test: MTT assay on normal cells RPMI 1788; assay type: cell-based; settings: MTT 48 h
Protocol: as §1
Human cell lines were obtained from the Institute of Cytology, Russian Academy of Sciences. The cell lines studied were maintained in RPMI 1640 medium (AppliChem, Darmstadt, Germany) supplemented with 20% (HL-60, RPMI 1788) fetal calf serum (HyClone, Cramlington, UK), in DMEM (A 549) and Eagle’s MEM (AppliChem) (MCF7, HeLa) with 10% fetal calf serum (HyClone). Cells were cultivated at 37 °C in a humidified atmosphere of 5% CO2. Cellular sensitivities to clofarabine and its lipid derivatives were measured with the MTT assay. Cells were plated in triplicate in 96-well plates (10^5 cells/well for suspended cell cultures and 5 × 10^3 cells/well for monolayer cultures); on the same day (suspended cell cultures) or on the following day (monolayer cultures), compounds were added at the appropriate dilutions. Plates were incubated under standard conditions for 48 h. Thereafter, 10 μL of MTT (Sigma) in phosphate-buffered saline (5 mg/mL) was added. The plates were incubated for an additional 4 h, and 150 μL of dimethyl sulfoxide (DMSO) was added to dissolve the formazan crystals. The optical density was read on a HALO MPR-95 Microplate Reader (Dynamica Scientific Ltd., Australia) at 570 nm. The antiproliferative effects were determined as degrees of inhibition of tumor cells (%).

PDGFRb = molecular target: T4, PDGFRb (Homo sapiens, UniProt P09619); test: ADP-Glo kinase inhibitory assay, PDGFRb; assay type: biochemical; settings: read-out: % Inhibition at 10 nM, PDGFRb
T4 construct: purchased Promega
Protocol: as §3, §4, §5

PDGFRa = molecular target: T5, PDGFRa (Homo sapiens, UniProt P16234); test: ADP-Glo kinase inhibitory assay, PDGFRa; assay type: biochemical; settings: read-out: % Inhibition at 10 nM, PDGFRa
T5 construct: purchased Promega
Protocol: as §3, §4, §5

InsR = molecular target: T6, InsR (Homo sapiens, UniProt P06213); test: ADP-Glo kinase inhibitory assay, InsR; assay type: biochemical; settings: for selectivity for the gene insulin receptor, in words: 10 nM, panel of eight receptor tyrosine kinases; for inhibition at 0.01 µM: read-out: % Inhibition at 10 nM, InsR
T6 construct: purchased Promega
Protocol: as §3, §4, §5

HER-2 = molecular target: T7, HER-2 (Homo sapiens, UniProt P04626); test: ADP-Glo kinase inhibitory assay, HER-2; assay type: biochemical; settings: read-out: % Inhibition at 10 nM, HER-2
T7 construct: purchased Promega
Protocol: as §3, §4, §5

KDR (VEGFR2) = molecular target: T8, KDR (VEGFR2) (Homo sapiens, UniProt P35968); test: ADP-Glo kinase inhibitory assay, KDR; assay type: biochemical; settings: 10 nM
T8 construct: purchased Promega
Protocol: as §3
Vascular endothelial growth factor receptor 2 (VEGFR2), also called kinase insert domain receptor (KDR), is a tyrosine kinase receptor for VEGFs that plays a central role in tumor angiogenesis; therefore, the inhibition of VEGFR2 is a promising therapeutic strategy for inhibiting angiogenesis and tumor growth.
as §4, §5

HeLa (cervix carcinoma) = test: MTT anti-proliferative assay, HeLa; assay type: cell-based; settings: Homo sapiens, 48 h, 50% growth inhibition
Protocol: as §1, §2

T7 sequence (P04626 23-1255): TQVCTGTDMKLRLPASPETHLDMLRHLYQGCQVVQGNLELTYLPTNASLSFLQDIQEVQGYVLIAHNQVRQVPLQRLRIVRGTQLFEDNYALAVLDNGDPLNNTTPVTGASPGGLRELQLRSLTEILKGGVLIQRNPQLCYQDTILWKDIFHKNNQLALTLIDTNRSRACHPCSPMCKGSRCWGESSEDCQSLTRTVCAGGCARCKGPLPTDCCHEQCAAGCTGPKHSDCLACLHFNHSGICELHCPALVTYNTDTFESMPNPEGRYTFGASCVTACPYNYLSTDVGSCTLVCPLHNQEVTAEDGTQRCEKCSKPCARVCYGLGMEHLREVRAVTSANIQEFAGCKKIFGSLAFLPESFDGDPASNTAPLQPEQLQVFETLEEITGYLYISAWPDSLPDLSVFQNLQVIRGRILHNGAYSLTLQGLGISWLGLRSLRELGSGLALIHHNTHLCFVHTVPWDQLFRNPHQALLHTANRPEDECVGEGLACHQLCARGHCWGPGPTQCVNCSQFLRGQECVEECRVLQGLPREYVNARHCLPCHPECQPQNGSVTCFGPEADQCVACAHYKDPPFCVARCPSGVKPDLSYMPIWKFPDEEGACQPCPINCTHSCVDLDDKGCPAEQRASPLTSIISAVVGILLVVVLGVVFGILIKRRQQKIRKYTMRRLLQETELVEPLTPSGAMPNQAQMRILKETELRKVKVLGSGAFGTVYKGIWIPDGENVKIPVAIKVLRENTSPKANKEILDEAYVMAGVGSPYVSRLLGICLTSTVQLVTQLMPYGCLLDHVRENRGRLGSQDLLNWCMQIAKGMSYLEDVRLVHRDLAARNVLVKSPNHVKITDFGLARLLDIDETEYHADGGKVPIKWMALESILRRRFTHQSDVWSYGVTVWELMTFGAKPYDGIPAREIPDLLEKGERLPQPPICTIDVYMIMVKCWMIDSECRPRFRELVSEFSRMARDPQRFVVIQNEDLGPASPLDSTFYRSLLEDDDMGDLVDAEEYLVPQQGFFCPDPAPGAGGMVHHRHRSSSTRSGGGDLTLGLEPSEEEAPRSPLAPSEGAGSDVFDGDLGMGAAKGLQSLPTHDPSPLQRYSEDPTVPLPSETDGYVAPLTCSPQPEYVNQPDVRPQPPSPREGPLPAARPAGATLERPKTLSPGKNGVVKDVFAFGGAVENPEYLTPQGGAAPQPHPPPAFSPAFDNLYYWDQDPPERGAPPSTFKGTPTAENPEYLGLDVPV
T2 sequence (P00533 25-1210): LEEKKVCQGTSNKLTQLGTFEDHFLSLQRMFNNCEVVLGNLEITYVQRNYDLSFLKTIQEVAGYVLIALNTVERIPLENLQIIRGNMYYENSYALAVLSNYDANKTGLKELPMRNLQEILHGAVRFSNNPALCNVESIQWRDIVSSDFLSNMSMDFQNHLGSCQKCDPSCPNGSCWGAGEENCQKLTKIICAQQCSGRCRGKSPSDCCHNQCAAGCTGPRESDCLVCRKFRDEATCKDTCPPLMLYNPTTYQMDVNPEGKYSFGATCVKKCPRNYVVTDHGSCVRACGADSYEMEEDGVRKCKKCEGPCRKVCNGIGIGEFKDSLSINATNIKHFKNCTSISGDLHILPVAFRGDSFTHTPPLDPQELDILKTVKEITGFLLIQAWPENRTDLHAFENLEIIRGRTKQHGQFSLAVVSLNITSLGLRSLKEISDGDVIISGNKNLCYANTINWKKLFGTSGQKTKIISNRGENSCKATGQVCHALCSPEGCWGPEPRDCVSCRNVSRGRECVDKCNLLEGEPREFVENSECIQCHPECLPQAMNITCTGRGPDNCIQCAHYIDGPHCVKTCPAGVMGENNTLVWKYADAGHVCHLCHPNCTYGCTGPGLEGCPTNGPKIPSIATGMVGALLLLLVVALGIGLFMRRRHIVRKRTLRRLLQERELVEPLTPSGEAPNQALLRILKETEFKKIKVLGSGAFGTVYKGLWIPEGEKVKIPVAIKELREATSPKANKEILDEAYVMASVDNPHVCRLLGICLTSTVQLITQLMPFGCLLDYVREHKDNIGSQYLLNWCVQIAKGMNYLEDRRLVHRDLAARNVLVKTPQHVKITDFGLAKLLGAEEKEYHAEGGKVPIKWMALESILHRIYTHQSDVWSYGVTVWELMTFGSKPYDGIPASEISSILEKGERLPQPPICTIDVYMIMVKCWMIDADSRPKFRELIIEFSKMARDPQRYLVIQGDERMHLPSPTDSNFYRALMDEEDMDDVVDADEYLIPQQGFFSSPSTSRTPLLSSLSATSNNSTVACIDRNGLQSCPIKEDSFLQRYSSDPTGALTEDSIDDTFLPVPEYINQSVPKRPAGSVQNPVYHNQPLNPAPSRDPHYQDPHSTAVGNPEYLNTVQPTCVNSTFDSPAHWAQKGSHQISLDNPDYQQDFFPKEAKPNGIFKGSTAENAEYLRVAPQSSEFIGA
T6 sequence (P06213 28-1382): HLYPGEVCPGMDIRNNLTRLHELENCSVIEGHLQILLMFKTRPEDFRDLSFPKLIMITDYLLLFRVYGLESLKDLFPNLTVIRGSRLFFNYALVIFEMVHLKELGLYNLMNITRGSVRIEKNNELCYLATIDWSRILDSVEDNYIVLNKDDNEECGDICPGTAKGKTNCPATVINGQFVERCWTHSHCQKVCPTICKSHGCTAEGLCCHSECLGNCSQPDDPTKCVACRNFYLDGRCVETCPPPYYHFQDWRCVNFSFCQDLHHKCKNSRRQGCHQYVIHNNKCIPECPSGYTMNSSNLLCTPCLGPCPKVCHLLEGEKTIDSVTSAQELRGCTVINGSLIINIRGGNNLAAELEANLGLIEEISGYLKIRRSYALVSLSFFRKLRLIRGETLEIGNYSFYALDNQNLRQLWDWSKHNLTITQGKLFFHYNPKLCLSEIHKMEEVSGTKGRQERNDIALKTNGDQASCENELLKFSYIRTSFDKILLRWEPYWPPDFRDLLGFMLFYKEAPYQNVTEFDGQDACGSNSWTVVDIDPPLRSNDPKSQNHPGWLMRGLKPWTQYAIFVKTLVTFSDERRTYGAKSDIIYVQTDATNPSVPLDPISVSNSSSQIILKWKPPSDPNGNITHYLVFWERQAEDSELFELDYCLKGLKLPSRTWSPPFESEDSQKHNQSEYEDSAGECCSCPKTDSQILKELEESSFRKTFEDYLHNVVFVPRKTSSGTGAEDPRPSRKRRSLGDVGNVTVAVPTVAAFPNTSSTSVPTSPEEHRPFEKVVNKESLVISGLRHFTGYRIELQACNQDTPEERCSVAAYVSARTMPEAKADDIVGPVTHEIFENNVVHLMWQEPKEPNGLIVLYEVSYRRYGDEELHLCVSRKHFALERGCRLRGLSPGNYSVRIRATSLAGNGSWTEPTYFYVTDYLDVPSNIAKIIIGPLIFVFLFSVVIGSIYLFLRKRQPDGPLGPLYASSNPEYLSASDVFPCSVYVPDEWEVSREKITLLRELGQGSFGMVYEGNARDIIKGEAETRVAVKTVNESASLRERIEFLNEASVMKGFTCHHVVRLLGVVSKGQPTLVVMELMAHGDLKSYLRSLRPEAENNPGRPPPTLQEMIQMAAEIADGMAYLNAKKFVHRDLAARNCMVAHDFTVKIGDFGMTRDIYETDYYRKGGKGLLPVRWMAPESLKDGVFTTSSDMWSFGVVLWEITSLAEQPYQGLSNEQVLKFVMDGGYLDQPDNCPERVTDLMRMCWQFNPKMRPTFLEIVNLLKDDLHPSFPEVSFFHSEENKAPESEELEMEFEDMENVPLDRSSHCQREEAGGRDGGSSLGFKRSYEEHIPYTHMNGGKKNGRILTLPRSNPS
T5 sequence (P16234 24-1089): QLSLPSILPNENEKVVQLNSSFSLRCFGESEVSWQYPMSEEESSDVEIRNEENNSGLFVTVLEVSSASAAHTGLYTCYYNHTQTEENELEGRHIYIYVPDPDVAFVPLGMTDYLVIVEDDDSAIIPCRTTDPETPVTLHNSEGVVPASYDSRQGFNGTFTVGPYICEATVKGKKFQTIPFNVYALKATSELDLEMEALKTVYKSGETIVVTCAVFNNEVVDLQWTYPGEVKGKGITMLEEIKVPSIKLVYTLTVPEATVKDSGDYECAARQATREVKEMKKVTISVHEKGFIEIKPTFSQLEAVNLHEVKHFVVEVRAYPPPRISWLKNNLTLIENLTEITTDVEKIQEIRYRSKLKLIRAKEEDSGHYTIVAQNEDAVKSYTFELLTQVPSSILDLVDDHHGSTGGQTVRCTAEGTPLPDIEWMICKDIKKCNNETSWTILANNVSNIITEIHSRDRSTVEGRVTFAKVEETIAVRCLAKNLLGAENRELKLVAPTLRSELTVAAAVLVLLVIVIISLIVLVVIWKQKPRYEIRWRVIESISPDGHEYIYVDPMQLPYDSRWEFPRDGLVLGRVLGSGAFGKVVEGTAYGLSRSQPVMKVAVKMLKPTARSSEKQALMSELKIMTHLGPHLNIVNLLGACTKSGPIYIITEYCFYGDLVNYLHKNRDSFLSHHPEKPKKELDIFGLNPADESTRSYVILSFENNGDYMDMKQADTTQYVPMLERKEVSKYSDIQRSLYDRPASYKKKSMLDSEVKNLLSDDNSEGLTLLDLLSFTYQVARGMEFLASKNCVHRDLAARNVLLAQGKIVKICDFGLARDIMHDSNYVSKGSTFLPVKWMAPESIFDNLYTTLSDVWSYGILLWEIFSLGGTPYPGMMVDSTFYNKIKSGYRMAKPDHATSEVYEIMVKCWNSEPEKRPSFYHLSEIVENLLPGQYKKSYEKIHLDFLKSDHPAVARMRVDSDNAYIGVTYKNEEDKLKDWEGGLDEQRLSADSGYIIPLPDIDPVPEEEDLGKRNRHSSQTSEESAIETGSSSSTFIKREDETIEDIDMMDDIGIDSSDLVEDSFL

Compound	IC50 [1] [µM]	IC50 [2] [µM]	melting point [°C]	IC50 [3] [µM]	IC50 (A549 (lung carcinoma)) [µM]	IC50 [4] [µM]	inhibition at 0.01 µM (IGF1R) [%]	inhibition at 0.01 µM (EGFR) [%]	inhibition at 0.01 µM (HER-4) [%]	inhibition at 100 µM [5] [%]	inhibition at 0.01 µM (PDGFRb) [%]	inhibition at 0.01 µM (PDGFRa) [%]	selectivity for the gene insulin receptor, in words (InsR)	inhibition at 0.01 µM (InsR) [%]	inhibition at 0.01 µM (HER-2) [%]	inhibition at 0.01 µM (KDR (VEGFR2)) [%]	inhibitory activity in relation to HER-4, in words (HER-4)	IC50 (HeLa (cervix carcinoma)) [µM]
Cc1cn(-c2cc(NC(=O)c3ccc(CNc4cc([N+](=O)[O-])ccc4C)cc3)cc(C(F)(F)F)c2)cn1 [Compound 9, N-(3-(4-methyl-1H-imidazol-1-yl)-5-(trifluoromethyl)phenyl)-4-(((2-methyl-5-nitrophenyl)amino)methyl)benzamide]	51	57	113 to 115	> 100	> 100	> 100												
CCOC(=O)CCC(NC(=O)c1ccc(CNc2cc(-n3cnc(C)c3)cc(C(F)(F)F)c2)cc1)C(=O)OCC (centres unmarked) [Compound 14, Diethyl(4-(((3-(4-methyl-1H-imidazol-1-yl)-5-(trifluoromethyl)phenyl)amino)methyl)benzoyl)glutamate]	50	45	125 to 127				0	0	0	10.4	0	0	high selectivity	23	0	0		
COC(=O)c1ccc(N)c(NC(=O)c2ccc(CNc3cc([N+](=O)[O-])ccc3C)cc2)c1 [Compound 19, Methyl 4-amino-3-[(4-{[(2-methy-5-nitrophenyl)amino]methyl}benzoyl)amino]benzoate]	64	> 100	208 to 210							10								
CCOC(=O)CC[C@H](NC(=O)c1ccc(CNc2nccc(-c3cccnc3)n2)cc1)C(=O)OCC [Compound 23, Diethyl (4-(((4-(pyridin-3-yl)pyrimidin-2-yl)amino)methyl)benzoyl)glutamate]	66	49	130 to 132				1	0	12	11.5	0	0		49	0	0		
Cc1cn(-c2cc(NC(=O)c3ccc(CN4CCN(C(=O)c5ccccc5F)CC4)cc3)cc(C(F)(F)F)c2)cn1 [Compound 28j, 4-{[4-(2-Fluorobenzoyl)piperazin-1-yl]methyl}-N-[3-(4-methyl-1H-imidazol-1-yl)-5-(trifluoromethyl)phenyl]benzamide]	6.9	30.6	106 to 109	71	> 100		0	0	0	6.44	2	8	high selectivity	50	0	0		
Cc1cn(-c2cc(NC(=O)c3ccc(CN4CCN(C(=O)c5cccc(F)c5)CC4)cc3)cc(C(F)(F)F)c2)cn1 [Compound 28k, 4-{[4-(3-Fluorobenzoyl)piperazin-1-yl]methyl}-N-[3-(4-methyl-1H-imidazol-1-yl)-5-(trifluoromethyl)phenyl]benzamide]	3.6	38.5	90 to 93				0	0	43	3.14	2	0		33	0	23	comparable to imatinib	
Cc1cn(-c2cc(NC(=O)c3ccc(CN4CCN(C(=O)c5cccnc5)CC4)cc3)cc(C(F)(F)F)c2)cn1 [Compound 28l]	4.5	53.5	96 to 100	77	> 100	> 100	0	0	51		7	0		0	0	17	comparable to imatinib	> 100
Cc1ccc(NC(=O)c2ccc(CN3CCN(C)CC3)cc2)cc1Nc1nccc(-c2cccnc2)n1 [Imatinib, reference compound]							0	0	42	13.4	75	56		36	0	0		
Cc1cn(-c2cc(NC(=O)c3ccc(C)c(Nc4nccc(-c5cccnc5)n4)c3)cc(C(F)(F)F)c2)cn1 [Nilotinib, reference compound]	< 0.1	55				55				< 0.1								
CNC(=O)c1cc(Oc2ccc(NC(=O)Nc3ccc(Cl)c(C(F)(F)F)c3)cc2)ccn1 [Sorafenib, reference compound]				55	58	51												
